Drawing on PubChem BioAssay AID624373 (Broad Institute, 2012), this text covers activity change, negative = inhibition and AC35 for 59 compounds.

Assay [1] is described as follows: LMP1 TES2 NF-kB reporter inhibitors, dose response, cell-based, HEK293, luciferase, dry powder (AID 624373). Particulars: HEK293 LMP1-TES2 NF-kB luciferase reporter, 16 h. In general terms: In a reporter assay the amount or activity of a reporter protein is the signal.
Assay [2] concerns HEK293 LMP1-TES2 NF-kB luciferase reporter, 16 h. Described as above.

Records with an inconclusive call do not appear. Calls of active or inactive are those of the source.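 The calls were made as follows: active = fitted curve reaches -35% activity change at up to twice the top valid dose, with every replicate test run active; inconclusive = replicate test runs disagree on the call; inactive = all runs inactive, no -35% crossing or signal rises.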

Regarding `Cc1cc(NC(=O)c2ccc3c(c2)OCCO3)no1`, the activity change, negative = inhibition in assay [1] (at 26 µM (top of the series)) is 1.38% (inactive). Consider `C/C(=N\NC(=S)Nc1ccccc1)c1ccccn1`, for which the AC35 in assay [2] is 313 nM.

In the case of `Fc1ccc2c(c1)c1nnc(SCCN3CCOCC3)nc1n2Cc1ccccc1`, in assay [2], the AC35 is 3940 nM. The same measure, in the same setting: in the case of `Cc1ccc(NC(=O)C2CCN(S(=O)(=O)c3ccc4c(c3)NC(=O)C(C)S4)CC2)cc1Cl` (centres undefined) it was 1650 nM.

For `CCc1ccc(/C=C2\SC(=S)N(CCCC(=O)Nc3ccccn3)C2=O)cc1`, in assay [1] (at 26 µM (top of the series)), the activity change, negative = inhibition was 12.1% (inactive). For `C/C(=N\NC(=S)Nc1cccc(Cl)c1)c1ccccn1`, in assay [2], the AC35 was 314 nM. Same read-out and setting: in the case of `CC12CCC3C(CC=C4CC(O)CCC43CO)C1CCC2OC(=O)c1ccccc1` (centres undefined) it was 3060 nM; in that of `C/C(=N\NC(=S)N1CC2CCC(CC2)C1)c1cccc(C)n1`, 637 nM. Still for that read-out and setting: in the case of `O=c1[nH]c(=O)n([C@H]2C[C@H](O)[C@@H](CO)O2)cc1C(F)(F)F` it was 3090 nM; in that of `O=C1/C(=C/c2ccncc2)SC(=S)N1Cc1ccccc1`, 18200 nM. As to `c1ccc(-c2cn3c4c(sc3n2)CCCC4)cc1`, in assay [1] (at 26 µM (top of the series)), the activity change, negative = inhibition was 7.22% (inactive). For `C/C(=N\NC(=S)N1CC2CCC(CC2)C1)c1ccccn1`, the AC35 in assay [2] is 1180 nM. As for `Cc1ccc(S(=O)(=O)Nc2ccc3c(c2)C(=O)N([C@@H](C)CO)C[C@H](C)[C@@H](CN(C)C(=O)CCC(F)(F)F)OCCCC[C@H](C)O3)cc1`, the AC35 in assay [2] is 288 nM. Regarding `Nc1ccn([C@@H]2O[C@H](CO)[C@@H](O)C2O)c(=O)n1` (some centres undefined), the AC35 in assay [2] is 8540 nM.

As for `CNC[C@@H]1Oc2ccc(NS(=O)(=O)c3cn(C)cn3)cc2CC(=O)N([C@H](C)CO)C[C@@H]1C`, in assay [1] (at 26 µM (top of the series)), the activity change, negative = inhibition is 37.6% (inactive). Regarding `C/C(=N\NC(=S)N1CCCCC1)c1cccc(C)n1`, the AC35 in assay [2] was 259 nM. Take `Oc1cccc(C(Nc2nccs2)c2ccc3cccnc3c2O)c1` (centres undefined): in assay [1] (at 26 µM (top of the series)), the activity change, negative = inhibition was 33.9% (inactive).

`CCCSc1nnc2c3ccccc3n(Cc3ccccc3)c2n1`: in assay [2], the AC35 was 3400 nM. On the same count and under the same terms, as for `S=C(NCc1ccccn1)N/N=C/c1ccccn1`, the figure is 1010 nM; as for `COCCCNC(=O)C(C)Sc1nnc2c3cc(C)ccc3n(Cc3ccccc3F)c2n1` (centres undefined), 5010 nM. Consider `O=C(Nc1cc(C(F)(F)F)cc(C(F)(F)F)c1)Nc1cnn(-c2ccc([N+](=O)[O-])cc2)c1C(F)(F)F`, for which the activity change, negative = inhibition in assay [1] (at 26 µM (top of the series)) was 10.5% (inactive). `C=C1C[C@]23C[C@@]1(O)CC[C@H]2[C@@]12C=C[C@H](O)[C@@](C)(C(=O)O1)[C@H]2[C@@H]3C(=O)O`: in assay [1] (at 15 µM (top of the series)), the activity change, negative = inhibition was 2.14% (inactive). On to `C/C(=N\NC(=S)N1CCCC1)c1ccccn1`, for which the AC35 in assay [2] is 262 nM. Take `C[C@H](CO)N1C[C@H](C)[C@@H](CN(C)CC2CC2)OCCCC[C@H](C)Oc2ccc(NC(=O)Nc3cccc4ccccc34)cc2C1=O`: the AC35 in assay [2] was 351 nM. Regarding `CCc1sc(C(=O)Nc2ncccc2O)cc1C`, in assay [1] (at 26 µM (top of the series)), the activity change, negative = inhibition was -12.6% (inactive). Take `C/C(=N\NC(=S)N1CCCCC1)c1ccccn1`: in assay [2], the AC35 is 212 nM. Consider `C/C=C/C/C=C/CCC(=O)[C@H]1O[C@H]1C(N)=O`, for which the AC35 in assay [2] is 12000 nM.

For `CSC(=S)N/N=C(\C)c1cccc(C)n1`, the AC35 in assay [2] was 3010 nM. The same measure, in the same setting: as for `CC1CN(C(=O)CSc2nnc3c4ccccc4n(Cc4cccc(Cl)c4)c3n2)CCN1C(=O)c1ccccc1F` (centres undefined), the figure is 4360 nM. The same measure, in the same setting: in the case of `CCC(Sc1nnc2c3ccccc3n(Cc3ccc(Br)cc3)c2n1)C(=O)NCCCN1CCOCC1` (centres undefined) it was 3200 nM; in that of `COc1ccccc1[C@]1(C)ON(c2ccccc2C(F)(F)F)C1=O`, 8160 nM. Consider `C[C@@H]1CCCCO[C@H](CN(C)C(=O)NC2CCCCC2)[C@H](C)CN([C@@H](C)CO)C(=O)c2cc(NC(=O)C3CCCCC3)ccc2O1`, for which the AC35 in assay [2] is 6420 nM.

`C/C(=N\NC(=S)N1CC2CCC(CC2)C1)c1ccncn1`: the AC35 in assay [2] is 2500 nM.

Regarding `C[C@H](CO)N1C[C@H](C)[C@@H](CN(C)Cc2ccc(-c3ccccc3)cc2)Oc2ccc(NC(=O)Nc3cccc4ccccc34)cc2CC1=O`, in assay [2], the AC35 was 2360 nM. The same measure, in the same setting: in the case of `C=C1C[C@]23C[C@@]1(O)CC[C@@H]2c1cccc(C)c1[C@@H]3C(=O)O` it was 4340 nM; in that of `O=C(CSc1nnc2c3ccccc3n(Cc3ccccc3)c2n1)NCc1ccco1`, 2100 nM. In the case of `c1ccc(Cn2c3ccccc3c3nnc(SCCN4CCCCC4)nc32)cc1`, in assay [2], the AC35 is 18700 nM.

For `C/C(=N\NC(=S)Nc1ccc(C)cc1)c1ccccn1`, the AC35 in assay [2] was 142 nM.

As to `C[C@@H]1CN([C@@H](C)CO)C(=O)c2cc(NC(=O)Nc3ccc4c(c3)OCO4)ccc2O[C@H]1CN(C)CC1CCCCC1`, the AC35 in assay [2] was 895 nM.

As for `COc1ccc(-c2cc3nc4n(c(=O)c3s2)CCC4)cc1`, in assay [1] (at 26 µM (top of the series)), the activity change, negative = inhibition is 23.4% (inactive). As to `C[C@@H]1CCCCO[C@@H](CN(C)Cc2ccccc2)[C@H](C)CN([C@H](C)CO)C(=O)c2cc(NC(=O)Nc3ccc4c(c3)OCO4)ccc2O1`, in assay [1] (at 26 µM (top of the series)), the activity change, negative = inhibition is 10.6% (inactive). As to `C[C@@H]1CN([C@@H](C)CO)C(=O)c2cc(NC(=O)Nc3ccc(C(F)(F)F)cc3)ccc2O[C@@H](C)CCCCO[C@@H]1CN(C)CC1CCCCC1`, in assay [2], the AC35 is 1860 nM. Consider `C[C@@H]1CCCCO[C@H](CN(C)CC2CCCCC2)[C@H](C)CN([C@@H](C)CO)C(=O)c2cc(NC(=O)NC3CCCCC3)ccc2O1`, for which, in assay [1] (at 26 µM (top of the series)), the activity change, negative = inhibition is 56.5% (inactive). Same read-out and setting: as for `COc1ccc(-c2csc3ncnc(NCCN4CCOCC4)c23)cc1`, the figure is 30.3% (inactive); as for `C[C@@H]1CCCCO[C@H](CN(C)C(=O)c2ccccc2)[C@H](C)CN([C@@H](C)CO)C(=O)c2cc(NC(=O)Nc3ccc(F)cc3)ccc2O1`, 4.26% (inactive). As for `Cc1ccnc(NC(=O)c2ccc(C(=O)c3ccccc3)cc2)c1`, in assay [2], the AC35 is 11000 nM. On the same count and under the same terms, as for `COc1ccc2[nH]c(C(=O)N/N=C/c3ccc(O)cc3O)cc2c1`, the figure is 3630 nM.

As for `COc1ccc(NC(=O)c2ccc(OC(C)C(=O)O)cc2)cc1Cl` (centres undefined), the AC35 in assay [2] is 11800 nM.

`C/C(=N\NC(=S)N1CCCCCC1)c1ccccn1`: the AC35 in assay [2] is 216 nM. Still for that read-out and setting: as for `C/C(=N\NC(=S)Nc1ccccc1Cl)c1ccccn1`, the figure is 457 nM; as for `CC(C)=CCN(C(=O)C#Cc1ccccc1)[C@H](CO)c1ccccc1`, 1880 nM; as for `CCN1CCN(C(c2cccnc2)c2cc(Cl)c3cccnc3c2O)CC1` (centres undefined), 3320 nM. `C[C@H]1CCCCO[C@@H](CN(C)CC2CCCCC2)[C@@H](C)CN([C@@H](C)CO)C(=O)c2cc(NC(=O)C3CCCCC3)ccc2O1`: the AC35 in assay [2] is 9980 nM. Take `C[C@H](CO)N1C[C@H](C)[C@@H](CN(C)CC2CCCCC2)OCCCC[C@H](C)Oc2ccc(NC(=O)Nc3cccc4ccccc34)cc2C1=O`: the activity change, negative = inhibition in assay [1] (at 26 µM (top of the series)) is 27.7% (inactive). Consider `C/C(=N\NC(=S)N1CCC1)c1ccccn1`, for which, in assay [2], the AC35 is 679 nM.

`C[C@@H]1CN([C@@H](C)CO)C(=O)c2cc(NC(=O)Nc3ccc(C(F)(F)F)cc3)ccc2O[C@@H](C)CCCCO[C@H]1CN(C)Cc1ccc(C(F)(F)F)cc1`: in assay [1] (at 26 µM (top of the series)), the activity change, negative = inhibition is 52.3% (inactive). With `C[C@H](CO)N1C[C@H](C)[C@H](CN(C)C(=O)Nc2ccc(C(F)(F)F)cc2)OCCCC[C@H](C)Oc2ccc(NC(=O)Nc3ccc(F)cc3)cc2C1=O`, the AC35 in assay [2] is 5400 nM. On to `Cc1ccc(S(=O)(=O)NC(CC(C)C)C(=O)NCC(c2ccco2)N2CCCCC2)cc1` (centres undefined), for which the activity change, negative = inhibition in assay [1] (at 26 µM (top of the series)) was -8.46% (inactive). Same read-out and setting: as for `Cc1c(NC(=O)c2cccc(NC(=O)COc3ccccc3C#N)c2)c(=O)n(-c2ccccc2)n1C`, the figure is 23.3% (inactive).
